Tests used:
[1] = system: human Burkitt's lymphoma (RAJI) cells; test: MTS assay of RAJI cell proliferation; assay type: cell-based; conditions: 900 mcg/ml, 72 hours
Description: Inhibition of proliferation by pirfenidone of human Burkitt's lymphoma (RAJI) cells in vitro.
(§1) To determine the inhibitory effect of pirfenidone concentrations on Burkitt's lymphoma (RAJI) cells, a MTS assay was used which incorporates a tetrazolium dye that measures the cellular conversion of the dye into a formazan product by the activation of NADH-generating dehydrogenases found in metabolically active cells.
(§2) 1. 100 microl. of cells was seeded into 96 well plates at 1×10^5 cells/ml in media containing 100 mcg/ml, 300 mcg/ml and 900 mcg/ml of pirfenidone, as well as a pirfenidone-free media control.
(§3) 2. Cells were incubated at 37 degrees C., at 5.0% CO2 for 72 hours.
(§4) 3. After incubation a standard curve was made of 100 microliters of cells added to the plate at 5×10^5 cells/ml making 1:2 dilutions all the way down to a pre-set degree of dilution.
(§5) 4. 2.0 mls of the MTS solution was mixed with a 100 microliter of the PMS solution, and 20 microliters of this combined dye solution was added to each well and incubated at 37 degrees C., 5.0% CO2 for 3 hours.
(§6) 5. Subsequently the absorbance was read at 490 nm.

[2] = system: human promyelocytic leukemia (HL-60) cells; test: Inhibition of proliferation of HL-60 cells, Trypan Blue cell counts; assay type: cell-based
Text: Inhibition of proliferation by pirfenidone of human promyelocytic leukemia (HL-60) cells in vitro.
[…] Five ml of each pirfenidone concentration, and of the control were placed into a T25 tissue culture flask along with 1×10^5 cells. Every day for 4 days an aliquote from each flask was taken out, then stained with Trypan Blue, and counts were repeated three times on each aliquote.

human leiomyoma cells = test: Leiomyoma cell proliferation, cell counts and Trypan Blue viability on day 7; assay type: cell-based
Description: Leiomyoma tissues were obtained from several premenopausal women with symptomatic uterine fibroids at elective hysterectomy, and who were not receiving any hormonal or other drug therapy. The fibroid tissues were minced into 1-2 mm# explants and placed in suitable DMEM supplemented with 10% bovine serum. The fibroid tissue was digested for 14-18 hours at 37 degrees C. in an incubator. After centrifugation, a resulting cell pellet was resuspended in DMEM and then placed in culture flasks. The cultures were maintained at 37 degrees centigrade in a humidified atmosphere of 5% CO2 and 95% air.
Leiomyoma cells were plated in 100 mm dishes (100,000 each dish) and allowed to attach overnight in DMEM plus 10% fetal bovine serum until they reached 80-90% confluence.

[3] = system: human T-cell leukemia (JURKAT) cells; test: MTS assay of JURKAT cell proliferation; assay type: cell-based; conditions: 900 mcg/ml, 72 hours
Description: Inhibition of proliferation by pirfenidone of human T-cell leukemia (JURKAT) cells in vitro.
as §1, with “human T-cell leukemia (JURKAT),” for “Burkitt's lymphoma (RAJI) cells,”
as §2, §3, §4, §5, §6

[4] = system: fresh human promyelocytic leukemia cells (AML3); conditions: cited from earlier work
AML-3 patients = conditions: oral, alone; cited from earlier work

| SMILES | reduction in number of active RAJI cells [1] | toxic death of HL-60 cells ([2]; 900 micrograms/ml, after 3 and 4 days) | inhibition of proliferation and cell death of HL-60 cells ([2]; 1400 micrograms/ml) | inhibition at 900 µg/mL ([2]; Homo sapiens, HL-60, 900 micrograms/ml, after 3 and 4 days) | CELL COUNTS (DAY 7) LEIOMYOMA (human leiomyoma cells; 0.01 MG/ML) | RECENT DEAD CELLS (DAY 7) LEIOMYOMA (human leiomyoma cells; 0.01 MG/ML) | CELL COUNTS (DAY 7) LEIOMYOMA (human leiomyoma cells; 0.1 MG/ML) | RECENT DEAD CELLS (DAY 7) LEIOMYOMA (human leiomyoma cells; 0.1 MG/ML) | CELL COUNTS (DAY 7) LEIOMYOMA (human leiomyoma cells; 0.3 MG/ML) | RECENT DEAD CELLS (DAY 7) LEIOMYOMA (human leiomyoma cells; 0.3 MG/ML) | CELL COUNTS (DAY 7) LEIOMYOMA (human leiomyoma cells; 1.0 MG/ML) | RECENT DEAD CELLS (DAY 7) LEIOMYOMA (human leiomyoma cells; 1.0 MG/ML) | percentage of dead leiomyoma cells (human leiomyoma cells; 1000 micrograms/ml) | effect on proliferation of leiomyoma cells (human leiomyoma cells; graded concentrations in the culture media, 7 days (FIG. 4)) | reduction in number of active JURKAT cells [3] | induction of differentiation in vitro [4] | clinical response (AML-3 patients) |
| --- | --- | --- | --- | --- | --- | --- | --- | --- | --- | --- | --- | --- | --- | --- | --- | --- | --- |
| Cc1ccc(=O)n(-c2ccccc2)c1 [pirfenidone] | 45% | without causing a toxic death of the cells | deaths of almost all cells | 63% | 315,000 | 8.0 | 205,000 | 10.0 | 170,000 | 6.0 | 69,000 | 16.0 | 16% | significant inhibitory effect | 75% |  |  |
| CC1=C(/C=C/C(C)=C/C=C/C(C)=C/C(=O)O)C(C)(C)CCC1 [All-trans-retinoic acid] |  |  |  |  |  |  |  |  |  |  |  |  |  |  |  | differentiate in vitro to mature functional gramulocytes | complete remission |

Source: USRE40155E1, “Methods for treatment of benign and malignant tumors, including lymphomas, leukemias, and leiomyomas” (priority 1995, dated 2008)
